Laboratory results as given in publication PMC12648656, “Palladium(II) Complexes with Noncovalent Interactions with DNA: Solution Speciation Controlled by Solvent Identity, pH, and Concentration” (Inorganic Chemistry, 2025).

Assay: Stability in physiological buffers (Tris, phosphate, HEPES) by UV-vis
Type: physicochemical
Method: The reaction of the metal complexes (2) and (3) with buffer components was followed in an array of DMSO percentages, from 1% to 60% (v/v) DMSO/H2O (pH 7.4) medium. The samples were prepared by dilution of the stock solution of the respective complex in DMSO (5 mM) with 5 mM Tris 1% (v/v) DMSO/H2O or 5 mM phosphate buffers 60% (v/v) DMSO/H2O (pH 7.40 in both cases), reaching a final concentration of 10^–6 to 10^–4 M. The UV–vis spectra of the final samples were followed over time at 37 °C for up to 24 h.

In the case of Clc1ccc(N=C2N[N+](=Cc3c[nH]cn3)[Pd-2]3([S]C(Nc4ccc(Cl)cc4)=N[N+]3=Cc3c[nH]cn3)[S]2)cc1 (centres unmarked) [(2), Bis(1H-imidazole-4-carboxaldehyde-4N-p-chlorophenylthiosemicarbazonato)palladium(II)], the “behaviour in HEPES buffer” value (HEPES, pH 7.4, 0.1 M chloride, 60% DMSO) is reported as “formed precipitation”, the “time stable in solution, no precipitation” value (Tris buffer containing 3% (v/v) DMSO, pH 7.4, 20.0 μM) is reported as “up to 24 h” and the “stability after 24 h” value (Tris buffer, 60% DMSO) is reported as “decreased the stability”. The “behaviour in phosphate buffer” value (pH 7.4, 0.1 M chloride, 3% (v/v) DMSO) was “precipitated” and the “behaviour in phosphate buffer” value (pH 7.4, 0.1 M chloride, 60% (v/v) DMSO, first 10 h) was “major structural changes”.
